These results are taken from PMC3280214, “Structure Based Discovery of Small Molecules to Regulate the Activity of Human Insulin Degrading Enzyme” (PLoS ONE, 2012).

The test system of data set [1] is HeLa cells. Description: Cell-based degradation of FITC-insulin. Further details: species or system human. As for the experimental part: It was shown that HeLa cells express insulin receptor, and thus take FITC-labeled insulin inside and degrade it intracellularly, [21], [22]. First, FITC-insulin was added to the culture that contains HeLa cells and incubated for 2 hours in order to allow for sufficient uptake of FITC-insulin by HeLa cells. In order to ensure that FITC-labeled insulin is translocating into the cells through insulin uptake receptor, and that cytoplasmic IDE can degrade FITC- insulin, we conducted live cell imaging of HeLa cells, and recorded fluorescence. At various time points compounds, D3, D6, and D10, were added; and cells were washed with Hank's balanced salt solution (HBSS), the these cells were collected and lysed with appropriate buffer. After centrifugation, cell free extracts were used to measure the change in fluorescence by luminometer. […] Compound D10 increased in vivo proteolysis of FITC- insulin by about 32 fold with HeLa cells compared to control group (Fig. 3A). […] These findings are consistent with the data obtained by in vitro assay, showing enhanced degradation of insulin by D10 and D3 (Fig. 3A). […] This figure further verifies the significant increase in fluorescence observed in the presence of compound D10, which is consistent with our in vitro assay (Fig. 3B).
Cells were cultured at 37°C under a humidified atmosphere of 5% CO2 in medium supplemented with 10% fetal bovine serum. Then, FITC-insulin was added to cell medium and incubated for 2 h at 37°C. Next, compounds were loaded at different time intervals separately. Cells were washed with Hank's balanced salt solution (HBSS), then disrupted with 1× passive lysis buffer. Fluorescence was measured with a luminescence multi-label plate leader, and changes in fluorescence was imaged by fluorescence microscope at Burc Laboratory (Istanbul, Turkey).

Data set [2] concerns the target T1, IDE (Homo sapiens, UniProt P14735).
T1 construct: made in house; host or cells: E. coli BL21
T1 sequence (P14735 1-1019): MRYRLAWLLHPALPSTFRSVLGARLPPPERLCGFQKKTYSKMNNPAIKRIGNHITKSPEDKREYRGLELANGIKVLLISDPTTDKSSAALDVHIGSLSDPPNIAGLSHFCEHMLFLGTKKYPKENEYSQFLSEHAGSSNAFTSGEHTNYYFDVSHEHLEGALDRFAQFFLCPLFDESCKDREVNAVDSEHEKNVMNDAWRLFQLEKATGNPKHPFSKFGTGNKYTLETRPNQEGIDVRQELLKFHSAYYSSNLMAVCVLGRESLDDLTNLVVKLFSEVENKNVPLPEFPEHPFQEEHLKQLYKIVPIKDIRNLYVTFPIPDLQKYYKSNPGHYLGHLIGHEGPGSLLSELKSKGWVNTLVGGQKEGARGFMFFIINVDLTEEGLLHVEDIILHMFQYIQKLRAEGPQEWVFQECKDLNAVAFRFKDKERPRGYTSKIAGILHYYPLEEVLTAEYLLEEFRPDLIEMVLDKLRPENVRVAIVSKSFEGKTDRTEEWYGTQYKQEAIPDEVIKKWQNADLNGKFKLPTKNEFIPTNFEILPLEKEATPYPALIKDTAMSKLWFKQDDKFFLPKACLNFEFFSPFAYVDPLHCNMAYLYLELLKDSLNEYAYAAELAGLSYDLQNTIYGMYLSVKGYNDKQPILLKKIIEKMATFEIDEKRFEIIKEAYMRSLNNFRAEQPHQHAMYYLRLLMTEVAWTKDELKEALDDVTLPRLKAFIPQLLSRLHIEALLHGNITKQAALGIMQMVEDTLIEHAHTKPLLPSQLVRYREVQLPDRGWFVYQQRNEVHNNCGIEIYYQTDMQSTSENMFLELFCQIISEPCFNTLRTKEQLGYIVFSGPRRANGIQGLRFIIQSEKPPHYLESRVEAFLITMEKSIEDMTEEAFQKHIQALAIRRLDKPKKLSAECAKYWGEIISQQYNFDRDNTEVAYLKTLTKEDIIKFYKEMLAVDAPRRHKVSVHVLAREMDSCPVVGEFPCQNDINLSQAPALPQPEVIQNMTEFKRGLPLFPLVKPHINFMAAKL
In words: FAβB (amyloid-β) degradation assay. Type of data set: biochemical. As for the experimental part: The 10 compounds given in Table 1 were subjected to further characterization and their effect was measured on the proteolytic activity of IDE using different substrates. Initially, activity assays were carried out at fixed 20 µM concentrations for all molecules to identify the effect of those compounds on IDE activity. IDE activity was quantified by monitoring the change in fluorescence for the proteolysis of fluorogenic-substrate V, FITC- insulin-bound antibody, and FAβB by recombinant human IDE purified from E.coli BL21 [6], [18], [19]. […] Also, D6 increased the amyloid-β degradation by 20% (Fig. S1C). Further, D10 enhanced IDE-mediated FITC-insulin-mAb and substrate V degradation by 290% and 65%, respectively (Fig. S1A, B). Next, an EC50 value of each molecule that enhanced IDE activity was determined with a dose response assay, where specific activity of IDE was measured with different concentrations of the lead compounds and then the plot was fit to Sigmoidal Hill-4 parameter equation. […] EC50 value for D3 on insulin degradation was approximately measured as 20 µM (Fig. S2C), whereas EC50 value for D6 on amyloid-β degradation was 2 µM (Fig. S2D). […] Among all these four compounds, D10 seems to be the potent activator of IDE, when proteolysis of insulin is considered.
This assay was performed as follows: 10 µl of 50 nM of FAβB was dissolved in a buffer which consisted of 50 mM HEPES, 100 mM NaCl, % 0,05 (v/v) bovine serum albumin, at a pH of 7.4. The reaction was initiated in a total volume of 100 µl with 20 µM drugs by adding 20 µl of 0.02 mg/ml of IDE for 2.5 h at 37°C. The reaction was stopped by adding 2 µl of 100 mM of protease inhibitor (1, 10-phenanthroline). Uncleaved FAβB was precipitated with Neutravidin- coated agarose beads by gentle rocking for 30 min. and centrifugation for 10 min at 14000 g. The supernatant was transferred to the black 96 well plates and increase in fluorescence (488 excitation, 525 emission) was measured with a multi-label plate reader.
The effect of the lead compounds on the initial rate of proteolysis of IDE was determined by measurement in fluorescence with time both in the presence and absence of the lead compounds. The kinetic data for IDE-mediated insulin, substrate V and amyloid-β degradation were plotted and fitted using SigmaPlot software (Sigmoidal, Hill, 4 parameter). For the initial rate calculations, kinetic data were fitted using SigmaPlot software (Hyperbola; Single Rectangular I, 3 Parameter).

The subject of data set [3] is HeLa cells. Description: MTT assay for cell viability. The data set is classed as cell-based, human. From the text: We characterized the activity of novel compounds in a cellular assay to establish whether there were any cytotoxic effects. We used an established MTT (3-(4,5-dimethylthiazolyl-2)-2, 5-diphenyltetrazolium bromide or thiazolyl blue) method using HELA cells to determine whether the small molecule affects cell viability. In this method, a purple formazan dye forms as a result of the cleavage of the yellow tetrazolium MTT within metabolically active cells. The resulting precipitate of the intracellular formazan can be dissolved in a detergent solution and quantified spectrophotometrically at 595 nm. We measured the cytotoxicity by incubating HELA cells in the presence of novel compounds at concentrations ranging from 1 to 100 µM for 24 h. Cell viability was measured using the MTT method after […] culture. The extent of cell death was expressed relative to a control containing DMSO. […] Therefore, as a next step we tested the effects of lead compounds on insulin catabolism using HeLa cells.
The cytotoxicity assay was performed using human cervical cancer HeLa cells. Cells were cultured at 37°C under a humidified atmosphere of 5% CO2 in medium supplemented with 10% fetal bovine serum and dispersed in replicate 96-well plates with 2.5×10^4 cells/well. Compounds were then added. After 24 hours exposure to the chemical compounds, the cell viability was determined by 3-[4,5-dimethylthiazol-2-yl]-2,5-diphenpyltetrazolium bromide (MTT) assay. The optical density (OD) of the wells was determined using ELISA plate reader at a test wavelength of 600 nm and a reference wavelength of 630 nm. Each measurement was carried out in triplicate.
(In general: Formazan colour is commonly taken as a measure of viable cells.)

Data set [4] deals with IDE. Particulars: bradykinin as IDE substrate; cited from earlier work.

pEC50: −log10 of the molar value. “Also recorded” adds a separate entry of the source.

In the case of `O=[N+]([O-])c1cc(Cn2c(-c3ccc(Cl)c([N+](=O)[O-])c3)nc3ccccc32)ccc1Cl` [Compound D6], in data set [1] (HeLa cells pre-loaded with FITC-insulin), the “effect on insulin catabolism in HeLa cells” value is reported as “no effect on insulin catabolism; also recorded: does not change insulin degradation”. Also, in data set [1] (inferred from HeLa cell assay), the “permeability through cell membrane” value was “permeable through cell membrane”. For the same compound, in data set [2] (20 µM compound), the “increase of IDE-mediated amyloid-β degradation” value worked out at 20%. The “effect of ATP on amyloid-β degradation in presence of compound” value in data set [2] (ATP, data not shown) is listed as “no effect”. Also, the pEC50 in data set [2] (dose response, Sigmoidal Hill 4 parameter fit) was 5.70. Further, the “acceleration of initial rate of amyloid-β proteolysis” value in data set [2] (presence vs absence of compound) came out at 1.3 factor. The “cytotoxicity at EC50 value” in data set [3] (2 µM) is on record as “not toxic”. Moreover, in data set [3] (1 to 100 µM, 24 h), the “cytotoxicity at high concentrations” value is “showed toxicity at higher concentrations”.
“bradykinin (RPPGFSPFR; Bradykinin; UniProt P01042 381-389, looked up)”: in data set [4], the Km was 4.2 mM.

Broadly, the pEC50 is −log10 of the EC50, conventionally taken in molar units. A low value points to a large EC50. The term Km denotes the substrate concentration at which the rate is half of its maximum.
